The values that follow come from patent US11046680B1, “Heteroaryl-substituted triazoles as APJ receptor agonists” (priority 2016, dated 2021).

The test system of data set [1] is heart failure rat model (MI Rat Model). Briefly: In vivo cardiac contractility in heart failure (MI) rat model. Further details: species or system Lewis rat. Conditions: heart failure rats in vivo, acute settings. On the procedure: Evidence for Improvement in Cardiac Contractility In Vivo in Heart Failure Rat Model
Based on the ex vivo findings in isolated heart assay, APJ agonists were dosed in vivo to investigate the translation of cardiac contractility in in vivo settings. Male Lewis rats (Charles River, USA) at 2-3 months of age were used for the study. Heart failure was induced by permanent ligation of the left descending coronary artery which results in injury to the heart with an ejection fraction of <35%. APJ agonists were administered dose dependently acutely for a period of 30 min. Administration of example compounds lead to an increase in cardiac contractility as measured by dP/dtmax (derivative of left ventricular pressure) (Table 41).

For data set [2] the following is noted: cited from earlier work.
For data set [3], the target named is human APJ receptor (Homo sapiens (Human), UniProt P35414). Put plainly: biochemical. The format is biochemical. The note with it: [35S]GTPγS binding, CHO membranes expressing human APJ receptor; read-out: Activity hAPJ SPA EC50 IP. An outline of the steps:
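Membranes of a stable CHO line carrying human APJ (pFLAG-CMV-3) were used in a GTPγS binding format; buffer GDP, MgCl2 and NaCl were optimized, and plates were read after 90 min at RT.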
In general terms: GTPγS resists hydrolysis and so accumulates on activated G proteins.

Chain of human APJ receptor (P35414 whole entry): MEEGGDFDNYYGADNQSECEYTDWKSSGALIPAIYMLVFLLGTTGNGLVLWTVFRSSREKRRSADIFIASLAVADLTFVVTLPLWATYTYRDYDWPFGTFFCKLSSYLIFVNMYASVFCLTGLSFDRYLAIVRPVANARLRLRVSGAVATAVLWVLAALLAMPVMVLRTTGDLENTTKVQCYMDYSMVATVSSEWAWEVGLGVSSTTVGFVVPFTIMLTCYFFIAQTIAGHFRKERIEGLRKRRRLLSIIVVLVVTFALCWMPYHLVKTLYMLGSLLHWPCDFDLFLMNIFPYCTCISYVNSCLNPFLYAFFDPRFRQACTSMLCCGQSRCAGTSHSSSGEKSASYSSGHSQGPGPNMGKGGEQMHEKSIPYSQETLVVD

For the molecule `C[C@H](CS)C(=O)N1CCC[C@H]1C(=O)O` [Captopril], the “improvement in contractility or ejection fraction” value in data set [1] was “does not show a marked improvement in contractility or ejection fraction”.

In the case of “Apelin-13 (QRPRLSHKGPMPF; Apelin-13; UniProt Q9ULZ1 65-77, looked up)”, the plasma half-life in data set [2] was less than 5 min.

Turning to `COc1cccc(OC)c1-n1c(NS(=O)(=O)[C@@H](C)[C@H](OC)c2ncc(C)cn2)nnc1-c1ccc(Cl)s1` [Example 334.0, (1R,2S)-N-(5-(5-chloro-2-thiophenyl)-4-(2,6-dimethoxyphenyl)-4H-1,2,4-triazol-3-yl)-1-methoxy-1-(5-methyl-2-pyrimidinyl)-2-propanesulfonamide], in data set [3], the EC50 was determined as 0.52 nM.

On to `COc1ccccc1-n1c(NS(=O)(=O)CCc2ccc(F)cc2)nnc1-c1cccs1` [Example 359.0, 2-(4-Fluorophenyl)-N-(4-(2-methoxyphenyl)-5-(thiophen-2-yl)-4H-1,2,4-triazol-3-yl)ethanesulfonamide], for which the half-maximal effective concentration (EC50) in data set [3] turned out to be 143 nM.

Regarding `COc1cccc(OC)c1-n1c(NS(=O)(=O)[C@H](C)Cc2ccc(C#N)cn2)nnc1-c1nc(C)cs1` (single isomer, unassigned) [Example 12.0, (2R)-1-(5-Cyano-2-pyridinyl)-N-(4-(2,6-dimethoxyphenyl)-5-(4-methyl-1,3-thiazol-2-yl)-4H-1,2,4-triazol-3-yl)-2-propanesulfonamide or (2S)-1-(5-cyano-2-pyridinyl)-N-(4-(2,6-dimethoxyphenyl)-5-(4-methyl-1,3-thiazol-2-yl)-4H-1,2,4-triazol-3-yl)-2-propanesulfonamide], the EC50 in data set [3] is 9.4 nM.

Consider `COc1cccc(OC)c1-n1c(NS(=O)(=O)[C@@H](C)[C@H](C)c2ncc(C)cn2)nnc1-c1ccn(C(F)F)n1` [Example 198.0, (2S,3R)-N-(5-(1-(difluoromethyl)-1H-pyrazol-3-yl)-4-(2,6-dimethoxyphenyl)-4H-1,2,4-triazol-3-yl)-3-(5-methyl-2-pyrimidinyl)-2-butanesulfonamide], for which the EC50 in data set [3] worked out at 0.2 nM.

On to `COc1cccc(OC)c1-n1c(NS(=O)(=O)CCc2ncc(F)cn2)nnc1-c1nc(C(C)C)cs1` [Example 96.0, N-(4-(2,6-dimethoxyphenyl)-5-(4-isopropylthiazol-2-yl)-4H-1,2,4-triazol-3-yl)-2-(5-fluoropyrimidin-2-yl)ethanesulfonamide], for which, in data set [3], the EC50 worked out at 7 nM.

For the molecule `COc1cnc([C@@H](OC)[C@H](C)S(=O)(=O)Nc2nnc(-c3ccn(C)n3)n2-c2c(OC)ncnc2OC)cn1` [Example 460.0, (1R,2S)-N-(4-(4,6-dimethoxy-5-pyrimidinyl)-5-(1-methyl-1H-pyrazol-3-yl)-4H-1,2,4-triazol-3-yl)-1-methoxy-1-(5-methoxy-2-pyrazinyl)-2-propanesulfonamide], in data set [3], the EC50 stood at 2.6 nM.

Turning to “(2R,3R)-3-(5-Cyanopyrimidin-2-yl)-N-(4-(2,6-dimethoxyphenyl)-5-(4-methylthiazol-2-yl)-4H-1,2,4-triazol-3-yl)-3-fluorobutane-2-sulfonamide and (2S,3S)-3-(5-cyanopyrimidin-2-yl)-N-(4-(2,6-dimethoxyphenyl)-5-(4-methylthiazol-2-yl)-4H-1,2,4-triazol-3-yl)-3-fluorobutane-2-sulfonamide [Example 321.0]”, in data set [3], the EC50 amounted to 1.6 nM.

Turning to `COc1ccccc1-n1c(NS(=O)(=O)Cc2ccc(Cl)cc2)nnc1-c1ccc(F)s1` [Example 235.0, 1-(4-chlorophenyl)-N-(5-(5-fluoro-2-thiophenyl)-4-(2-methoxyphenyl)-4H-1,2,4-triazol-3-yl)methanesulfonamide], in data set [3], the EC50 is greater than 12500 nM.

As for `COc1nc[nH]c(=O)c1-n1c(NS(=O)(=O)[C@@H](C)Cc2ncc(F)cn2)nnc1-c1ccn(C)n1` (racemic) [Example 7.0, (2R)-1-(5-fluoro-2-pyrimidinyl)-N-(4-(4-methoxy-6-oxo-1,6-dihydro-5-pyrimidinyl)-5-(1-methyl-1H-pyrazol-3-yl)-4H-1,2,4-triazol-3-yl)-2-propanesulfonamide and (2S)-1-(5-fluoro-2-pyrimidinyl)-N-(4-(4-methoxy-6-oxo-1,6-dihydro-5-pyrimidinyl)-5-(1-methyl-1H-pyrazol-3-yl)-4H-1,2,4-triazol-3-yl)-2-propanesulfonamide], in data set [3], the half-maximal effective concentration (EC50) worked out at 51 nM.

Consider `COc1ccc(N2CCC2=O)cc1-n1c(NS(=O)(=O)CCc2ccc(Cl)cc2)nnc1-c1cccs1` [Example 126.0, 2-(4-Chlorophenyl)-N-(4-(2-methoxy-5-(2-oxo-1-azetidinyl)phenyl)-5-(2-thiophenyl)-4H-1,2,4-triazol-3-yl)ethanesulfonamide], for which the EC50 in data set [3] is 11 nM.

With `CCc1onc(-c2nnc(NS(=O)(=O)[C@@H](C)[C@H](OC)c3ncc(Cl)cn3)n2-c2c(OC)cccc2OC)c1C` [Example 519.0], the EC50 in data set [3] worked out at 0.32 nM.

As usually defined, the EC50 is the concentration needed to bring the measured effect to its halfway point.
